Data: article PMC8537140, “Synthesis and Inhibition Activity Study of Triazinyl-Substituted Amino(alkyl)-benzenesulfonamide Conjugates with Polar and Hydrophobic Amino Acids as Inhibitors of Human Carbonic Anhydrases I, II, IV, IX, and XII” (International Journal of Molecular Sciences, 2021)
pKi: −log10 of the molar value.

What was measured:
Assay type in all cases: biochemical
hCA IV = molecular target: T1, hCA IV (Homo sapiens, UniProt P22748); assay: stopped-flow CO2 hydrase assay, hCA IV; details: recombinant enzyme, 15 min preincubation, pH 8.3, mean from 3 assays
T1 construct: made in house
Method: (§1) An Applied Photophysics stopped-flow instrument (Applied Photophysics, Leatherhead, UK) was used for assaying the CA-catalyzed CO2 hydration activity [31]. […] The uncatalyzed rates were determined in the same manner and subtracted from the total observed rates. Stock solutions of inhibitor (0.1 mM) were prepared in distilled-deionized water and dilutions up to 0.005 nM were done thereafter with the assay buffer. Inhibitor and enzyme solutions were preincubated together for 15 min at room temperature prior to assay, in order to allow formation of the E–I complex. The inhibition constants were obtained by non-linear least-squares methods using PRISM 3 and the ChengPrusoff equation, as reported earlier, and represent the mean from at least three different determinations. All CA isozymes were recombinant ones obtained in-house.

hCA I = molecular target: T2, hCA I (Homo sapiens, UniProt P00915); assay: stopped-flow CO2 hydrase assay, hCA I; details: recombinant enzyme, 15 min preincubation, pH 8.3, mean from 3 assays
T2 construct: made in house
Method: as §1

hCA XII = molecular target: T3, hCA XII (Homo sapiens, UniProt O43570); assay: stopped-flow CO2 hydrase assay, hCA XII; details: for Selectivity II/XII: ratio Ki hCA II / Ki hCA XII; for pKi: recombinant enzyme, 15 min preincubation, pH 8.3, mean from 3 assays
T3 construct: made in house
Method: as §1

hCA II = molecular target: T4, hCA II (Homo sapiens, UniProt P00918); assay: stopped-flow CO2 hydrase assay, hCA II; details: recombinant enzyme, 15 min preincubation, pH 8.3, mean from 3 assays
T4 construct: made in house
Method: as §1

hCA IX = molecular target: T5, hCA IX (Homo sapiens, UniProt Q16790); assay: stopped-flow CO2 hydrase assay, hCA IX; details: for Selectivity II/IX: ratio Ki hCA II / Ki hCA IX; for pKi: recombinant enzyme, 15 min preincubation, pH 8.3, mean from 3 assays
T5 construct: made in house
Method: as §1

T3 sequence (O43570 25-354): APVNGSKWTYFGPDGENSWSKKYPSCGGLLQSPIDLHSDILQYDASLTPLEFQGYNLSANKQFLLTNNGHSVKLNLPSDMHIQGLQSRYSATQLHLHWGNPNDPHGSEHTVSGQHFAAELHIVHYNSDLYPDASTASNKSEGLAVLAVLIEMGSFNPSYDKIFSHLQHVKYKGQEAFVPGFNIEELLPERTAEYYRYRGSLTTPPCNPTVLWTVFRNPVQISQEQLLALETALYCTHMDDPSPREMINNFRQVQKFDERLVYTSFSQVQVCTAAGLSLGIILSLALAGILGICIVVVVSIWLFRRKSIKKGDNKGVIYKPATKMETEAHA
T1 sequence (P22748 19-312): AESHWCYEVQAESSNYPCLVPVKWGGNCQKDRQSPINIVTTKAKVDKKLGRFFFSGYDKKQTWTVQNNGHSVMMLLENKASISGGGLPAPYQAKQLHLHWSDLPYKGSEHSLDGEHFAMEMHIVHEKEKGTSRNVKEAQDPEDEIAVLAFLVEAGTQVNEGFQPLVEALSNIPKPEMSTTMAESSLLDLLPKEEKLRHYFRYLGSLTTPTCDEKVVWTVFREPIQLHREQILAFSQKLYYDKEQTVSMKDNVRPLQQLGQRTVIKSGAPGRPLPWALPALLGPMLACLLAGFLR
T2 sequence (P00915 whole entry): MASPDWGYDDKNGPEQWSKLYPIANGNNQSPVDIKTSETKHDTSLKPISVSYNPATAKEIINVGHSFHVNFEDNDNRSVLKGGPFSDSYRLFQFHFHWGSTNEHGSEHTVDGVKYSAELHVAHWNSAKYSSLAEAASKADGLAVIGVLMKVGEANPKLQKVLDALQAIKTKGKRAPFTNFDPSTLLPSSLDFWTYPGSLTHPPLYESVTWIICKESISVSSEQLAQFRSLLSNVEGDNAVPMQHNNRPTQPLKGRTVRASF

Compound | pKi (hCA IV) | pKi (hCA I) | Selectivity II/XII (hCA XII) | pKi (hCA XII) | pKi (hCA II) | Selectivity II/IX (hCA IX) | pKi (hCA IX)
CC(Nc1nc(Nc2ccc(S(N)(=O)=O)cc2)nc(NC(C)C(=O)O)n1)C(=O)O (stereo not drawn) [compound 4] | 7.06 | 5.26 | 88.10 | 8.05 | 6.11 | 1.52 | 6.29
NS(=O)(=O)c1ccc(Nc2nc(NC(Cc3ccc(O)cc3)C(=O)O)nc(NC(Cc3ccc(O)cc3)C(=O)O)n2)cc1 (stereo not drawn) [compound 5] | 7.13 | 7.01 | 0.40 | 8.03 | 8.44 | 0.06 | 7.24
NS(=O)(=O)c1ccc(Nc2nc(N[C@@H](Cc3c[nH]c4ccccc34)C(=O)O)nc(N[C@@H](Cc3c[nH]c4ccccc34)C(=O)O)n2)cc1 [compound 6] | 7.23 | 7.32 | 0.20 | 8.09 | 8.79 | 0.04 | 7.34
NS(=O)(=O)c1ccc(Nc2nc(NC(CO)C(=O)O)nc(NC(CO)C(=O)O)n2)cc1 (stereo not drawn) [compound 7] | 5.06 | 5.18 | 7.30 | 7.14 | 6.28 | 1.12 | 6.33
CC(O)C(Nc1nc(Nc2ccc(S(N)(=O)=O)cc2)nc(NC(C(=O)O)C(C)O)n1)C(=O)O (stereo not drawn) [compound 8] | 5.31 | 5.14 | 26.10 | 7.46 | 6.04 | 1.04 | 6.06
NC(=O)CC(Nc1nc(Nc2ccc(S(N)(=O)=O)cc2)nc(NC(CC(N)=O)C(=O)O)n1)C(=O)O (stereo not drawn) [compound 9] | 5.27 | < 5.00 | 17.10 | 7.42 | 6.18 | 0.73 | 6.05
NC(=O)CCC(Nc1nc(Nc2ccc(S(N)(=O)=O)cc2)nc(NC(CCC(N)=O)C(=O)O)n1)C(=O)O (stereo not drawn) [compound 10] | 5.08 | 5.04 | 11.30 | 7.17 | 6.11 | 1.24 | 6.20
CC(Nc1nc(NCc2ccc(S(N)(=O)=O)cc2)nc(NC(C)C(=O)O)n1)C(=O)O (stereo not drawn) [compound 11, 2,2′-[(6-({4-sulfamoylbenzyl}amino)-1,3,5-triazine-2,4-diyl)diimino]dipropanoic acid] | 6.33 | 6.20 | 19.60 | 8.03 | 6.74 | 2.87 | 7.20
NS(=O)(=O)c1ccc(CNc2nc(NC(Cc3ccc(O)cc3)C(=O)O)nc(NC(Cc3ccc(O)cc3)C(=O)O)n2)cc1 (stereo not drawn) [compound 12, 2,2′-[(6-({4-sulfamoylbenzyl}amino)-1,3,5-triazine-2,4-diyl)diimino]bis(3-(4-hydroxyphenyl)propanoic acid)] | 6.61 | 7.12 | 6.10 | 8.06 | 7.27 | 0.61 | 7.06
NS(=O)(=O)c1ccc(CNc2nc(NC(Cc3c[nH]c4ccccc34)C(=O)O)nc(NC(Cc3c[nH]c4ccccc34)C(=O)O)n2)cc1 (stereo not drawn) [compound 13, 2,2′-[(6-({4-sulfamoylbenzyl}amino)-1,3,5-triazine-2,4-diyl)diimino]bis(3-(1H-indol-3-yl)propanoic acid)] | 7.03 | 7.52 | 0.70 | 8.07 | 8.21 | 0.09 | 7.18
NS(=O)(=O)c1ccc(CNc2nc(NC(CO)C(=O)O)nc(NC(CO)C(=O)O)n2)cc1 (stereo not drawn) [compound 14, 2,2′-[(6-({4-sulfamoylbenzyl}amino)-1,3,5-triazine-2,4-diyl)diimino]bis(3-hydroxypropanoic acid)] | 5.21 | 6.19 | 3.10 | 7.09 | 6.60 | 0.96 | 6.58
CC(O)C(Nc1nc(NCc2ccc(S(N)(=O)=O)cc2)nc(NC(C(=O)O)C(C)O)n1)C(=O)O (stereo not drawn) [compound 15, 2,2′-[(6-({4-sulfamoylbenzyl}amino)-1,3,5-triazine-2,4-diyl)diimino]bis(3-hydroxybutanoic acid)] | < 5.00 | 6.16 | 1.70 | 7.35 | 7.12 | 0.21 | 6.44
NC(=O)CC(Nc1nc(NCc2ccc(S(N)(=O)=O)cc2)nc(NC(CC(N)=O)C(=O)O)n1)C(=O)O (stereo not drawn) [compound 16, 2,2′-[(6-({4-sulfamoylbenzyl}amino)-1,3,5-triazine-2,4-diyl)diimino]bis(3-carbamoylpropanoic acid)] | < 5.00 | 6.08 | 5.70 | 7.36 | 6.60 | 2.63 | 7.02
NC(=O)CCC(Nc1nc(NCc2ccc(S(N)(=O)=O)cc2)nc(NC(CCC(N)=O)C(=O)O)n1)C(=O)O (stereo not drawn) [compound 17, 2,2′-[(6-({4-sulfamoylbenzyl}amino)-1,3,5-triazine-2,4-diyl)diimino]bis(4-carbamoylbutanoic acid)] | < 5.00 | 6.16 | 7.00 | 7.46 | 6.62 | 0.52 | 6.34
CC(Nc1nc(NCCc2ccc(S(N)(=O)=O)cc2)nc(NC(C)C(=O)O)n1)C(=O)O (stereo not drawn) [compound 18, 2,2′-[(6-({2-(4-sulfamoylphenyl)ethyl}amino)-1,3,5-triazine-2,4-diyl)diimino]dipropanoic acid] | 5.41 | 6.10 |  |  | 6.77 |  | 7.10
NS(=O)(=O)c1ccc(CCNc2nc(NC(Cc3ccc(O)cc3)C(=O)O)nc(NC(Cc3ccc(O)cc3)C(=O)O)n2)cc1 (stereo not drawn) [compound 19, 2,2′-[(6-({2-(4-sulfamoylphenyl)ethyl}amino)-1,3,5-triazine-2,4-diyl)diimino]bis(3-(4-hydroxyphenyl)propanoic acid)] | 6.06 | 7.22 | 1.70 | 8.12 | 7.89 | 0.21 | 7.21
NS(=O)(=O)c1ccc(CCNc2nc(NC(Cc3c[nH]c4ccccc34)C(=O)O)nc(NC(Cc3c[nH]c4ccccc34)C(=O)O)n2)cc1 (stereo not drawn) [compound 20, 2,2′-[(6-({2-(4-sulfamoylphenyl)ethyl}amino)-1,3,5-triazine-2,4-diyl)diimino]bis(3-(1H-indol-3-yl)propanoic acid)] | 6.27 | 7.38 | 0.40 | 8.08 | 8.45 | 0.01 | 6.51
NS(=O)(=O)c1ccc(CCNc2nc(NC(CO)C(=O)O)nc(NC(CO)C(=O)O)n2)cc1 (stereo not drawn) [compound 21, 2,2′-[(6-({2-(4-sulfamoylphenyl)ethyl}amino)-1,3,5-triazine-2,4-diyl)diimino]bis(3-hydroxypropanoic acid)] | < 5.00 | 6.09 | 10.10 | 7.57 | 6.56 | 3.19 | 7.07
CC(O)C(Nc1nc(NCCc2ccc(S(N)(=O)=O)cc2)nc(NC(C(=O)O)C(C)O)n1)C(=O)O (stereo not drawn) [compound 22, 2,2′-[(6-({2-(4-sulfamoylphenyl)ethyl}amino)-1,3,5-triazine-2,4-diyl)diimino]bis(3-hydroxybutanoic acid)] | < 5.00 | 6.08 | 4.10 | 7.20 | 6.59 | 2.89 | 7.05
NC(=O)CC(Nc1nc(NCCc2ccc(S(N)(=O)=O)cc2)nc(NC(CC(N)=O)C(=O)O)n1)C(=O)O (stereo not drawn) [compound 23, 2,2′-[(6-({2-(4-sulfamoylphenyl)ethyl}amino)-1,3,5-triazine-2,4-diyl)diimino]bis(3-carbamoylpropanoic acid)] | < 5.00 | 6.05 | 2.60 | 7.27 | 6.87 | 0.36 | 6.42
NC(=O)CCC(Nc1nc(NCCc2ccc(S(N)(=O)=O)cc2)nc(NC(CCC(N)=O)C(=O)O)n1)C(=O)O (stereo not drawn) [compound 24, 2,2′-[(6-({2-(4-sulfamoylphenyl)ethyl}amino)-1,3,5-triazine-2,4-diyl)diimino]bis(4-carbamoylbutanoic acid)] | < 5.00 | 6.16 | 3.40 | 7.24 | 6.72 | 0.40 | 6.32
